Earlier results on 1 compound are cited in US10597401B2, “Methods and intermediates for the preparation of omacetaxine and cephalotaxine derivatives thereof” (ALBANY MOLECULAR RESEARCH, INC., priority 2015, dated 2020).

The structures appear in SMILES notation.

For the data set the following is noted: background statement, no test described.

Consider `COC1=C[C@]23CCCN2CCc2cc4c(cc2[C@@H]3[C@@H]1O)OCO4` [cephalotaxine], for which the biological activity entry is “biologically inactive”.
